In one experiment the test system is E. faecalis. As to the kind of experiment: In vitro antibacterial activity (MIC), E. faecalis. The class given is cell-based. The settings on record: E. faecalis (7 strains). The method, then:
(§1) The test strain was inoculated into the liquid medium and cultured at 37° C. for 16-18 h. The culture liquid and MH medium were put into two blank wells of a 96-well plate, respectively. Then, the absorptions thereof were measured by a Microplate reader. The difference between the absorption values of the culture liquid and MH medium is the adsorption of the bacteria. The concentration of the culture liquid can be calculated according to the formula of 1OD=50 million CFU/mL. The culture liquid was diluted with the MH bouillon culture medium to 5000 CFU/mL for further use.
(§2) Compounds 12a, 13 and 14 were dissolved in DMSO to 1 mg/mL, and then filtered with a 0.22 μm filter to obtain the compound solutions. And then they were gradually diluted to a desired concentration (10× final concentration) with the liquid medium, so as to obtain a series of dilutions. The final concentration grade of the dilutions of each tested compound consists of 14 concentrations, which includes: 0.03125 μg/mL, […], 0.125 μg/mL, 0.25 μg/mL, […], 1 μg/mL, 2 μg/mL, 4 μg/mL, 8 μg/mL, 16 μg/mL, 32 μg/mL, 64 μg/mL, 128 μg/mL and 256 μg/mL.
(§3) 10 μL of each of the compound dilutions above was added into a well of a 96-well plate. 90 μL of the culture liquid (5000 CFU/mL) was added into each of the wells, respectively, mixed with the dilutions to render the tested compound concentration to the final concentration. The resulted mixture was incubated at 37° C. for 16-18 h, and then the OD630 thereof was measured. A culture liquid free of the tested compounds is used as a blank control, and three parallel tests with the same concentration of each compound were performed. The minimum inhibitory concentration (MIC) of each compound on the standard strain of Staphylococcus Aureus and other test strains was determined. Specifically, among the culture liquid contained in the wells of the micro-plate, the first three lowest concentrations under which growth of the test strains could be observed were chose for further evaluation of the MIC. A culture liquid free of tested compounds was used as a blank control. Each of the culture liquids was homogenized independently, and then was diluted with a sterile saline. Each of the diluted culture liquids was plated onto a MH bouillon plate and incubated at 37° C. for 20 h in incubator. After the incubation, the number of the colonies on each plate was counted. As compared with the blank control group, the lowest concentration of each of the test compound groups, at which 80% reduction in the colony number of the strains was achieved, was recorded as the MIC.

Another experiment has as its system Streptococcus agalactiae. As to the kind of experiment: MIC against clinically isolated strains, Streptococcus agalactiae. As to conditions: Streptococcus agalactiae (17 strains). In kind it is cell-based. The source says: (§4) Standard strains, including Staphylococcus aureus ATCC29213, S. pneumoniae ATCC49619, E. faecalis ATCC29212, are all available from the American Type Culture Collection.
(§5) Clinically isolated strains: There are total 120 clinical strains of gram-positive bacterium including: 37 strains of Staphylococcus aureus (consisting of 14 strains of methicillin sensitive Staphylococcus aureus MSSA and 23 strains of methicillin resistant Staphylococcus aureus MRSA); 27 strains of Streptococcus pneumoniae (consisting of 13 strains of penicillin sensitive Streptococcus pneumoniae PSSP and 14 strains of penicillin insensitive or resistant Streptococcus pneumoniae PISP+PRSP); 15 strains of Streptococcus pyogenes; 17 strains of Streptococcus agalactiae; 24 stains of Enterococcus faecium (consisting of 12 strains of vancomycin sensitive Enterococcus faecium and 12 strains of vancomycin resistant Enterococcus faecium).
(§6) (2) Tested compounds: Compound 13f was prepared by the methods above, with potency of over 98%; Linezolid was purchased from Pfizer, with potency of 100%.
(§7) Staphylococcus and Enterococcus faecium were incubated in Mueller-Hinton agar medium (MHA medium) at 35° C. for 16-20 h; S. pneumoniae was incubated in Cation-Adjusted Mueller-Hinton Broth medium (CAMHB medium) supplemented with 2.5-5.5% (v/v) lysed horse blood (LHB) at 35° C. for 20-24 h; and Streptococcus were incubated in sheep blood-containing medium (prepared by addition of 5% defibrinated sheep blood into MHA media) at 35° C. for 20-24 h in 5% CO2 environment (CO2 incubator). Before test of the compound activity, each stock of the bacteria strains was activated and colonized in the following manner: the stock was transferred and cultured in a liquid culture medium, the culture liquid was smeared onto an agar plate with an inoculating loop to obtain bacterial colonies on the plate after incubation, and then a colony of the bacteria was chose to be suspended into the liquid culture medium for performing the test of compound activity. As a result, fresh bacteria cells were applied to the test. The standard strains were used as sensitive bacterium to control the quality of the experiments, and a plate or tube containing no antibacterial compounds is used as a blank control for the growth of test strains.
(§8) The minimal inhibitory concentration (MIC) of the test compounds on the strains of Streptococcus pneumoniae was determined by a standard broth macrodilution method, while the MIC of the test compounds on the other bacteria stains was determined by standard agar double dilution methods. The concentration of the test compounds was in the range of 32 mg/L-0.016 mg/L. The bacterial suspensions to be tested were inoculated by a multipoint inoculator, and the inoculation amount at each point is 10^4 CFU. The MIC of the test compound to each strain of the bacteria was determined.

Experiment [1] relates to Enterococcus faecium-resistant vancomycin. As to the kind of experiment: MIC against clinically isolated strains, vancomycin resistant Enterococcus faecium. In kind it is cell-based. As to conditions: Enterococcus faecium-resistant vancomycin (12 strains).
Source text: as §4, §5, §6, §7, §8

Experiment [2] has as its system Enterococcus faecium-sensitive vancomycin. Nature of the experiment: MIC against clinically isolated strains, vancomycin sensitive Enterococcus faecium. The settings on record: Enterococcus faecium-sensitive vancomycin (12 strains). The class given is cell-based.
Source text: as §4, §5, §6, §7, §8

The next experiment relates to S. agalactiae. As to the kind of experiment: In vitro antibacterial activity (MIC), S. agalactiae. The class given is cell-based. As to conditions: S. agalactiae (5 strains). Here is the method:
as §1, §2, §3

Another experiment relates to S. aureus. Nature of the experiment: In vitro antibacterial activity (MIC), S. aureus. The settings on record: for MIC: S. aureus (12 strains). In kind it is cell-based, Staphylococcus Aureus. The method, then: Strains: strain ATCC25923 is available from the American Type Culture Collection, and is used as a standard strain of Staphylococcus Aureus;
Liquid medium: MH bouillon culture medium, a product of BD Company, United States of American;
Tested Compounds: compounds 12a, 13 and 14 prepared according to the methods above, and Linezolid purchased from Pfizer.
as §1, §2, §3

The test system of another experiment is S. pneumoniae. As to the kind of experiment: In vitro antibacterial activity (MIC), S. pneumoniae. The settings on record: S. pneumoniae (10 strains). The class given is cell-based. Here is the method:
as §1, §2, §3

The results in this text go back to patent US8946436B2, “Oxazolidinone compounds and their uses in preparation of antibiotics” (Sichuan Gooddoctor Pharmaceutical Group Co., Ltd., priority 2011, dated 2015).

Converted amounts (≈) assume the structure as drawn. Where two headings read alike, the source gives them in different places.

A word on the MIC: it is the smallest concentration in the dilution series that meets the test's criterion for growth inhibition. One may read the MIC50 as the lowest concentration that inhibits either 50% of growth or 50% of the strains tested, depending on the study. Usually MIC90 stands for the lowest concentration that inhibits either 90% of growth or 90% of the strains tested, depending on the study. A higher MIC90 goes with lower susceptibility.

For `CC(=O)NC[C@H]1CN(c2ccc(N3CCOCC3)c(F)c2)C(=O)O1` [Linezolid, reference compound], the MIC against E. faecalis lay in the range of 4 to 32 mg/L; in the experiment on S. agalactiae, 4 to 32 mg/L; in the experiment on S. aureus, 4 to 32 mg/L; in the experiment with S. pneumoniae, 2 to 32 mg/L. For the same compound, the MIC50 (against Streptococcus agalactiae; in experiment [1]; in experiment [2]) was 0.001 mg/L (≈ 0.00296 µM) in each case. In addition, the MIC90 (in the experiment with Streptococcus agalactiae; in experiment [1]; in experiment [2]) was 0.001 mg/L (≈ 0.00296 µM) throughout. In addition, the MICmode (in the experiment with Streptococcus agalactiae; in experiment [1]; in experiment [2]) was 1 µg/L in each case. The MICrange in the experiment on Streptococcus agalactiae fell in the range of 0.5 to 1 µg/L; in experiment [1], 1 to 2 µg/L; in experiment [2], 1 to 2 µg/L.
As to `CC(=O)NC[C@H]1CN(c2ccc(-n3cc(-c4ccccn4)cn3)c(F)c2)C(=O)O1` [Compound 13f, (S)-N-((3-(3-fluoro-4-(4-(pyridin-2-yl)-1H-pyrazol-1-yl)phenyl)-2-oxooxazolidin-5-yl)methyl)acetamide], the MIC lay within 0.5 to 2 mg/L (≈ 1.26 to 5.06 µM) in the experiment on E. faecalis (Enterococcus faecalis, read-out: MIC); 0.25 to 2 mg/L (≈ 0.632 to 5.06 µM) in the experiment on S. agalactiae (Streptococcus agalactiae, read-out: MIC); 0.25 to 2 mg/L (≈ 0.632 to 5.06 µM) in the experiment on S. aureus (Staphylococcus aureus, read-out: MIC); 0.25 to 1 mg/L (≈ 0.632 to 2.53 µM) in the experiment on S. pneumoniae (Streptococcus pneumoniae, read-out: MIC). The MICmode (in the experiment on Streptococcus agalactiae; in experiment [1]; in experiment [2]) was 1 µg/L each time. Moreover, the values for the MICrange (against Streptococcus agalactiae; in experiment [1]; in experiment [2]) were 0.5 to 1 µg/L, 1 to 2 µg/L and 1 to 2 µg/L, respectively. Also, the “activity ranking among test compounds” value with S. aureus (Table 2: S. aureus, S. pneumoniae, S. agalactiae and E. faecalis) was “most optimum activity”.
